Data reported in US20080057129A1, “Drug microparticles” (priority 2006, published 2008).
One block for each compound: values may come before it.

Tests used:
[1] = Solubility of drug in menthol melt; assay type: physicochemical; details: for Solubility: in menthol melt
Procedure: Menthol (10 grams) was melted on a stirring hot plate with magnetic stirring, then heated to the desired temperature indicated in Table 1. The desired drug was added in small increments (approximately 0.1 grams) and stirred to obtain a clear solution. The desired drug was added in increments until no more drug dissolved in the menthol.
Menthol (10 grams) was melted on a stirring hot plate with magnetic stirring, then heated to the desired temperature indicated in Table 1. The Azithromycin was added in small increments (0.1 grams) and stirred to obtain a clear solution. The drug was added in increments until no more drug dissolved in the menthol.

[2] = test system: antimicrobial peptide gene expression; details: Wang et al., J. Immunol. 2004; cited from earlier work

- Solubility ([1]; 63 °C): 40.0 % w/w
Structure (SMILES): CC[C@H]1OC(=O)[C@H](C)[C@@H](O[C@H]2C[C@@](C)(OC)[C@@H](O)[C@H](C)O2)[C@H](C)[C@@H](O[C@@H]2O[C@H](C)C[C@H](N(C)C)[C@H]2O)[C@](C)(O)C[C@@H](C)CN(C)[C@H](C)[C@@H](O)[C@]1(C)O [Azithromycin]

- solubility in the menthol melt ([1]; without the additives PEG 6000 and Poloxamer 407): soluble
Structure (SMILES): CC(=O)O[C@@]12CO[C@@H]1C[C@H](O)[C@@]1(C)C(=O)[C@H](O)C3=C(C)[C@@H](OC(=O)[C@H](O)[C@@H](NC(=O)OC(C)(C)C)c4ccccc4)C[C@@](O)([C@@H](OC(=O)c4ccccc4)[C@H]21)C3(C)C [Docetaxel]

- solubility in menthol ([1]; 60° C.): 1%
- Solubility ([1]; 61 °C): 1.0 % w/w
Structure (SMILES): CCC(C)n1ncn(-c2ccc(N3CCN(c4ccc(OCC5COC(Cn6cncn6)(c6ccc(Cl)cc6Cl)O5)cc4)CC3)cc2)c1=O (stereo not drawn) [Itraconazole]

- Solubility ([1]; 43 °C): 16.0 % w/w
Structure (SMILES): O=C(O)c1ccccc1O [Salicylic acid]

Structure (SMILES): C=C1/C(=C\C=C2/CCC[C@]3(C)[C@@H]([C@H](C)CCCC(C)(C)O)CC[C@@H]23)C[C@@H](O)C[C@@H]1O [calcitriol, 1,25-dihydroxyvitamin D3]
- induction of antimicrobial peptide gene expression [2]: inducer of the antimicrobial peptide gene expression
